Tests used:
[1] = test system: Phakopsora pachyrhizi; assay: Phakopsora pachyrhizi / soybean / leaf disc preventative (Asian soybean rust); assay type: in vivo; conditions: foliar, 200 ppm in the applied formulation, compared to untreated control, read-out: disease control
Protocol: (§1) Leaf disks or leaf segments of various plant species are cut from plants grown in a greenhouse. The cut leaf disks or segments are placed in multiwell plates (24-well format) onto water agar. The leaf disks are sprayed with a test solution before (preventative) or after (curative) inoculation. Compounds to be tested are prepared as DMSO solutions (max. 10 mg/ml) which are diluted to the appropriate concentration with 0.025% Tween20 just before spraying. The inoculated leaf disks or segments are incubated under defined conditions (temperature, relative humidity, light, etc.) according to the respective test system. A single evaluation of disease level is carried out 3 to 14 days after inoculation, depending on the pathosystem. Percent disease control relative to the untreated check leaf disks or segments is then calculated.
Soybean leaf disks are placed on water agar in multiwell plates (24-well format) and sprayed with the formulated test compound diluted in water. One day after application leaf discs are inoculated by spraying a spore suspension on the lower leaf surface. After an incubation period in a climate cabinet of 24-36 hours in darkness at 20° C. and 75% rh leaf disc are kept at 20° C. with 12 h light/day and 75% rh. The activity of a compound is assessed as percent disease control compared to untreated when an appropriate level of disease damage appears in untreated check leaf disks (12 to 14 days after application).
(§2) The following compounds at 200 ppm in the applied formulation give at least 80% disease control in this test when compared to untreated control leaf disks under the same conditions, which show extensive disease development.

[2] = test system: Uromyces viciae-fabae; assay: Uromyces viciae-fabae / field bean / leaf disc preventative (faba-bean rust); assay type: in vivo; conditions: foliar, 288 h, 100 ppm in the applied formulation, compared to untreated control, read-out: disease control
Protocol: as §1
Field bean leaf discs are placed on water agar in multiwell plates (96-well format) and 10 μl of the formulated test compound diluted in acetone and a spreader pipetted onto the leaf disc. Two hours after application leaf discs are inoculated by spraying a spore suspension on the lower leaf surface. The leaf discs are incubated in a climate cabinet at 22° C. with 18 hour day and 70% relative humidity. The activity of a compound is assessed as percent disease control compared to untreated when an appropriate level of disease damage appears in untreated check leaf disks (12 days after application).
The following compounds at 100 ppm in the applied formulation give at least 80% disease control in this test when compared to untreated control leaf discs under the same conditions, which show extensive disease development.

[3] = test system: Glomerella lacenarium (Colletotrichum lacenarium); assay: Glomerella lacenarium (Colletotrichum lacenarium) liquid culture / cucumber / preventative (anthracnose); assay type: cell-based; conditions: 20 ppm in the applied formulation, growth inhibition measured photometrically, compared to untreated control, read-out: disease control
Protocol: Mycelia fragments or conidia suspensions of a fungus prepared either freshly from liquid cultures of the fungus or from cryogenic storage, are directly mixed into nutrient broth. DMSO solutions of the test compound (max. 10 mg/ml) are diluted with 0.025% Tween20 by a factor of 50 and 10 μl of this solution is pipetted into a microtiter plate (96-well format). The nutrient broth containing the fungal spores/mycelia fragments is then added to give an end concentration of the tested compound. The test plates are incubated in the dark at 24° C. and 96% relative humidity. The inhibition of fungal growth is determined photometrically after 2 to 7 days, depending on the pathosystem, and percent antifungal activity relative to the untreated check is calculated.
Conidia of the fungus from cryogenic storage are directly mixed into nutrient broth (PDB—potato dextrose broth). After placing a (DMSO) solution of test compound into a microtiter plate (96-well format), the nutrient broth containing the fungal spores is added. The test plates are incubated at 24° C. and the inhibition of growth is measured photometrically 3 to 4 days after application.
The following compounds at 20 ppm in the applied formulation give at least 80% disease control in this test when compared to untreated control under the same conditions, which show extensive disease development.

[4] = test system: Puccinia recondita f. Sp. tritici; assay: Puccinia recondita f. sp. tritici / wheat / leaf disc preventative (brown rust); assay type: in vivo; conditions: foliar, 200 ppm in the applied formulation, compared to untreated control, read-out: disease control
Protocol: as §1, with “calculated. Wheat leaf segments cv. Kanzler were placed on agar in multiwell plates (24-well format) and sprayed with the formulated test compound diluted in water. The leaf disks were inoculated with a spore suspension of the fungus 1 day after application. The inoculated leaf segments were incubated at 19° C. and 75% relative humidity (rh) under a light regime of 12 hours light/12 hours darkness in a climate cabinet and the activity of a compound was assessed as percent disease control compared to untreated when an appropriate level of disease damage appears in untreated check leaf segments (7 to 9 days after application). The following compounds at 200 ppm in the applied formulation give at least 80% disease control in this test when compared to untreated control leaf disks under the same conditions, which show extensive disease development.” for “calculated.”

[5] = test system: Puccinia recondita f. Sp. tritici; assay: Puccinia recondita f. sp. tritici / wheat / leaf disc curative (brown rust); assay type: in vivo; conditions: foliar, 200 ppm in the applied formulation, compared to untreated control, read-out: disease control
Protocol: as §1
Wheat leaf segments cv. Kanzler are placed on agar in multiwell plates (24-well format). The leaf segments are then inoculated with a spore suspension of the fungus. Plates were stored in darkness at 19° C. and 75% relative humidity. The formulated test compound diluted in water was applied 1 day after inoculation. The leaf segments were incubated at 19° C. and 75% relative humidity under a light regime of 12 hours light/12 hours darkness in a climate cabinet and the activity of a compound was assessed as percent disease control compared to untreated when an appropriate level of disease damage appears in untreated check leaf segments (6 to 8 days after application).
as §2

Row | SMILES | melting point | pest or weed control at 200 ppm [1] | pest or weed control at 100 ppm [2] | inhibition of growth at 20 ppm [3] | pest or weed control at 200 ppm [4] | pest or weed control at 200 ppm [5]
1 | O=C(c1ccc(F)cc1)c1ccc(-c2noc(C(F)(F)F)n2)cc1 [Compound 1.1, (4-fluorophenyl)-[4-[5-(trifluoromethyl)-1,2,4-oxadiazol-3-yl]phenyl]methanone] | 125 to 135 °C | ≥ 80% | ≥ 80% |  |  | 
2 | CC(=O)c1ccc(-c2noc(C(F)(F)F)n2)cc1 [Compound 1.2, 1-[4-[5-(trifluoromethyl)-1,2,4-oxadiazol-3-yl]phenyl]ethanone] | 105 to 115 °C |  | ≥ 80% |  |  | 
3 | O=C(c1ccccc1)c1ccc(-c2noc(C(F)(F)F)n2)cc1 [Compound 1.3, phenyl-[4-[5-(trifluoromethyl)-1,2,4-oxadiazol-3-yl]phenyl]methanone] | 110 to 115 °C | ≥ 80% | ≥ 80% | ≥ 80% |  | 
4 | CC(C)(C)C(=O)c1ccc(-c2noc(C(F)(F)F)n2)cc1 [Compound 1.4, 2,2-dimethyl-1-[4-[5-(trifluoromethyl)-1,2,4-oxadiazol-3-yl]phenyl]propan-1-one] |  |  | ≥ 80% |  |  | 
5 | O=C(c1ccc(OC(F)(F)F)cc1)c1ccc(-c2noc(C(F)(F)F)n2)cc1 [Compound 1.6, [4-(trifluoromethoxy)phenyl]-[4-[5-(trifluoromethyl)-1,2,4-oxadiazol-3-yl]phenyl]methanone] | 104 to 107 °C |  | ≥ 80% |  |  | 
6 | CC#CC(=O)c1ccc(-c2noc(C(F)(F)F)n2)cc1 [Compound 1.7, 1-[4-[5-(trifluoromethyl)-1,2,4-oxadiazol-3-yl]phenyl]but-2-yn-1-one] | 84 to 87 °C |  | ≥ 80% | ≥ 80% | ≥ 80% | 
7 | C=CCC(=O)c1ccc(-c2noc(C(F)(F)F)n2)cc1 [Compound 1.8, 1-[4-[5-(trifluoromethyl)-1,2,4-oxadiazol-3-yl]phenyl]but-3-en-1-one] | 65 to 69 °C |  | ≥ 80% | ≥ 80% |  | 
8 | O=C(c1ccc(-c2noc(C(F)(F)F)n2)cc1)C1CC1 [Compound 1.9, cyclopropyl-[4-[5-(trifluoromethyl)-1,2,4-oxadiazol-3-yl]phenyl]methanone] | 58 to 62 °C |  | ≥ 80% | ≥ 80% |  | 
9 | CC(C)CC(=O)c1ccc(-c2noc(C(F)(F)F)n2)cc1 [Compound 1.10, 3-methyl-1-[4-[5-(trifluoromethyl)-1,2,4-oxadiazol-3-yl]phenyl]butan-1-one] |  | ≥ 80% | ≥ 80% |  |  | 
10 | C/C=C/CC(=O)c1ccc(-c2noc(C(F)(F)F)n2)cc1 [Compound 1.11, 1-[4-[5-(trifluoromethyl)-1,2,4-oxadiazol-3-yl]phenyl]pent-3-en-1-one] |  | ≥ 80% | ≥ 80% | ≥ 80% |  | 
11 | Cc1ccsc1C(=O)c1ccc(-c2noc(C(F)(F)F)n2)cc1 [Compound 1.12, (3-methyl-2-thienyl)-[4-[5-(trifluoromethyl)-1,2,4-oxadiazol-3-yl]phenyl]methanone] |  | ≥ 80% | ≥ 80% | ≥ 80% |  | 
12 | Cc1ccnc(C(=O)c2ccc(-c3noc(C(F)(F)F)n3)cc2)c1 [Compound 1.27, (4-methyl-2-pyridyl)-[4-[5-(trifluoromethyl)-1,2,4-oxadiazol-3-yl]phenyl]methanone] | 76 to 81 °C | ≥ 80% |  | ≥ 80% | ≥ 80% | ≥ 80%
13 | CCCCC(O)c1ccc(-c2noc(C(F)(F)F)n2)cc1 (stereo not drawn) [Compound 2.3, 1-[4-[5-(trifluoromethyl)-1,2,4-oxadiazol-3-yl]phenyl]pentan-1-ol] |  |  | ≥ 80% |  |  | 
14 | C=C(C)C(O)c1ccc(-c2noc(C(F)(F)F)n2)cc1 (stereo not drawn) [Compound 2.8, 2-methyl-1-[4-[5-(trifluoromethyl)-1,2,4-oxadiazol-3-yl]phenyl]prop-2-en-1-ol] |  | ≥ 80% | ≥ 80% | ≥ 80% |  | 
15 | C/C=C/CC(O)c1ccc(-c2noc(C(F)(F)F)n2)cc1 (stereo not drawn) [Compound 2.9, 1-[4-[5-(trifluoromethyl)-1,2,4-oxadiazol-3-yl]phenyl]pent-3-en-1-ol] |  |  | ≥ 80% | ≥ 80% |  | 

Second part, led by results:

Row | melting point | SMILES | pest or weed control at 200 ppm [1] | pest or weed control at 100 ppm [2] | inhibition of growth at 20 ppm [3] | pest or weed control at 200 ppm [4] | pest or weed control at 200 ppm [5]
16 | 67 to 70 °C | COc1ccc(C(O)c2ccc(-c3noc(C(F)(F)F)n3)cc2)cc1 (stereo not drawn) [Compound 2.4, (4-methoxyphenyl)-[4-[5-(trifluoromethyl)-1,2,4-oxadiazol-3-yl]phenyl]methanol] | ≥ 80% | ≥ 80% |  |  | 
17 | 90 to 93 °C | OC(c1ccc(OC(F)(F)F)cc1)c1ccc(-c2noc(C(F)(F)F)n2)cc1 (stereo not drawn) [Compound 2.5, [4-(trifluoromethoxy)phenyl]-[4-[5-(trifluoromethyl)-1,2,4-oxadiazol-3-yl]phenyl]methanol] |  | ≥ 80% | ≥ 80% |  | 
18 | 69 to 73 °C | OC(c1ccc(-c2noc(C(F)(F)F)n2)cc1)C1CC1 (stereo not drawn) [Compound 2.7, cyclopropyl-[4-[5-(trifluoromethyl)-1,2,4-oxadiazol-3-yl]phenyl]methanol] |  | ≥ 80% | ≥ 80% | ≥ 80% | 
19 | 68 to 73 °C | Cc1ccsc1C(O)c1ccc(-c2noc(C(F)(F)F)n2)cc1 (stereo not drawn) [Compound 2.10, (3-methyl-2-thienyl)-[4-[5-(trifluoromethyl)-1,2,4-oxadiazol-3-yl]phenyl]methanol] | ≥ 80% | ≥ 80% | ≥ 80% |  | 
20 | 84 to 90 °C | Cc1cc(C(O)c2ccc(-c3noc(C(F)(F)F)n3)cc2)on1 (stereo not drawn) [Compound 2.14, (3-methylisoxazol-5-yl)-[4-[5-(trifluoromethyl)-1,2,4-oxadiazol-3-yl]phenyl]methanol] | ≥ 80% |  | ≥ 80% | ≥ 80% | ≥ 80%

— patent publication US11026427B2, “Microbiocidal oxadiazole derivatives” (SYNGENTA PARTICIPATIONS AG, priority 2016, dated 2021)
